# Test results from patent US10597388B2, “Pyridazinone herbicides” (FMC CORPORATION, priority 2014, dated 2020).
# Columns and labels:
# Type in all cases: in vivo
# [1] = test system: ryegrass, Italian (Italian ryegrass, Lolium multiflorum); assay: Test D controlled growth environment herbicide test, pre- and postemergence; settings: for Ryegrass, Italian plant response rating / Plant response rating (scale of 0 to 100), Ryegrass, Italian: 31 g ai/ha
# Procedure, shortened: (§1)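 Rating is visual, 0–100 scale (100 = complete control), made against untreated plants 14–21 d after treatment in controlled growth conditions. Postemergence sprays went onto 1- to 4-leaf plants in peat medium; preemergence sprays onto silt loam after sowing; formulation included a surfactant.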
# [2] = test system: buckwheat, wild (wild buckwheat, Polygonum convolvulus); assay: as above; settings: for Buckwheat, Wild plant response rating / Plant response rating (scale of 0 to 100), Buckwheat, Wild: 31 g ai/ha
# Procedure, shortened: as §1
# [3] = test system: mustard, wild (wild mustard, Sinapis arvensis); assay: as above; settings: for Mustard, Wild plant response rating / Plant response rating (scale of 0 to 100), Mustard, Wild: 31 g ai/ha
# Procedure, shortened: as §1
# [4] = test system: kochia (Kochia scoparia); assay: Test E greenhouse herbicide test, pre- and postemergence
# From the text: (§2) Seeds of plant species selected from corn (Zea mays), soybean (Glycine max), velvetleaf (Abutilon theophrasti), lambsquarters (Chenopodium album), wild poinsettia (Euphorbia heterophylla), pigweed, palmer (palmer pigweed, Amaranthus palmeri), waterhemp (common waterhemp, Amaranthus rudis), surinam grass (Brachiaria decumbens), crabgrass, large (large crabgrass, Digitaria sanguinalis), crabgrass, Brazilian (Brazilian crabgrass, Digitaria horizontalis), panicum, fall (fall panicum, Panicum dichotomiflorum), foxtail, giant (giant foxtail, Setaria faberii), foxtail, green (green foxtail, Setaria viridis), goosegrass (Eleusine indica), johnsongrass (Sorghum halepense), ragweed (common ragweed, Ambrosia elatior), barnyardgrass (Echinochloa crus-galli), sandbur (southem sandbur, Cenchrus echinatus), arrowleaf sida (Sida rhombifolia), Italian ryegrass (Lolium multiflorum), dayflower (Virginia (VA) dayflower, Commelina virginica), field bindweed (Convolvulus arvensis), momingglory (Ipomoea coccinea), nightshade (eastern black nightshade, Solanum ptycanthum), kochia (Kochia scoparia), nutsedge, yellow (yellow nutsedge, Cyperus esculentus), horseweed (Conyza canadensis), and beggarticks (hairy beggarticks, Bidens pilosa), were planted into a silt loam soil and treated preemergence with test chemicals formulated in a non-phytotoxic solvent mixture which included a surfactant.
# (§3) At the same time, plants from these crop and weed species and also waterhemp_RES1, (ALS & Triazine resistant common waterhemp, Amaranthus rudis), and waterhemp_RES2, (ALS & HPPD resistant common waterhemp, Amaranthus rudis) were planted in pots containing Redi-Earth® planting medium (Scotts Company, 14111 Scottslawn Road, Marysville, Ohio 43041) comprising spaghnum peat moss, vermiculite, wetting agent and starter nutrients were treated with postemergence applications of test chemicals formulated in the same manner. Plants ranged in height from 2 to 18 cm for postemergence treatments (1- to 4-leaf stage). Treated plants and controls were maintained in a greenhouse for 14 to 21 d, after which time all species were compared to controls and visually evaluated. Plant response ratings, summarized in Table E, are based on a scale of 0 to 100 where 0 is no effect and 100 is complete control. A dash (-) response means no test result.
# [5] = test system: Italian ryegrass (Lolium multiflorum); assay: as above
# From the text: as §2, §3
# [6] = test system: crabgrass, large (large crabgrass, Digitaria sanguinalis); assay: as above; settings: Preemergence
# From the text: as §2, §3
# [7] = test system: momingglory (Ipomoea coccinea); assay: as above; settings: Preemergence
# From the text: as §2, §3
# [8] = test system: nightshade (eastern black nightshade, Solanum ptycanthum); assay: as above; settings: Preemergence
# From the text: as §2, §3
# [9] = test system: surinam grass (Brachiaria decumbens); assay: as above; settings: Preemergence
# From the text: as §2, §3
# [10] = test system: crabgrass, Brazilian (Brazilian crabgrass, Digitaria horizontalis); assay: as above
# From the text: as §2, §3
# [11] = Postemergence, scale 0 to 100 (0 no effect, 100 complete control)
# [12] = Postemergence, 125 g ai/ha, visual rating on scale 0 (no effect) to 100 (complete control), 14 to 21 d
# [13] = Postemergence, 250 g ai/ha, scale 0 to 100 (0 no effect, 100 complete control)
# [14] = Preemergence, 62 g ai/ha, scale 0 to 100 (0 no effect, 100 complete control)
# [15] = Preemergence, 125 g ai/ha, scale 0 to 100 (0 no effect, 100 complete control)
# [16] = Preemergence, 250 g ai/ha, scale 0 to 100, 0 no effect, 100 complete control
# [17] = postemergence, 62 g ai/ha, scale 0 to 100, 0 no effect, 100 complete control
# [18] = 62 g ai/ha, Postemergence, scale 0 to 100 (0 no effect, 100 complete control)
# [19] = 62 g ai/ha, Preemergence, scale 0 to 100 (0 no effect, 100 complete control)
# [20] = 125 g ai/ha, Postemergence, scale 0 to 100 (0 no effect, 100 complete control)
# [21] = 125 g ai/ha, Preemergence, scale 0 to 100 (0 no effect, 100 complete control)
# [22] = 250 g ai/ha, Postemergence, scale 0 to 100 (0 no effect, 100 complete control)
# [23] = Postemergence, 31 g ai/ha, visual, scale 0 no effect to 100 complete control
# [24] = Preemergence, 31 g ai/ha, scale 0 to 100, 0 no effect, 100 complete control
# [25] = Preemergence, 250 g ai/ha, visual, scale 0 no effect to 100 complete control
# [26] = 62 g ai/ha, scale 0 to 100 (0 no effect, 100 complete control)
# [27] = 125 g ai/ha, scale 0 to 100 (0 no effect, 100 complete control)
# [28] = 31 g ai/ha, scale 0 to 100, 0 no effect, 100 complete control
# [29] = 250 g ai/ha, visual, scale 0 no effect to 100 complete control
# [30] = Postemergence, 16 g ai/ha, visual, scale 0 no effect to 100 complete control
# [31] = Preemergence, 16 g ai/ha, scale 0 to 100, 0 no effect, 100 complete control
# [32] = 16 g ai/ha, scale 0 to 100, 0 no effect, 100 complete control
smiles,measurement,setting,value
Cc1ccc2sc(Br)c(-c3c(O)c(C)nn(C)c3=O)c2c1 [Compound 79],"Ryegrass, Italian plant response rating",[1]; [11],70
same,"Plant response rating, Ryegrass, Italian",[1]; [12],85
same,"Plant response rating, Ryegrass, Italian",[1]; [13],90
same,"Plant response rating (scale of 0 to 100), Ryegrass, Italian",[1]; Preemergence,80
same,"Plant response rating, Ryegrass, Italian",[1]; [14],85
same,"Plant response rating, Ryegrass, Italian",[1]; [15],90
same,"Plant response rating, Ryegrass, Italian",[1]; [16],100
same,"Plant response rating, Ryegrass, Italian",[1]; [17],75
same,"Buckwheat, Wild plant response rating",[2]; [11],70
same,"Plant response rating, Buckwheat, Wild",[2]; [12],100
same,"Plant response rating, Buckwheat, Wild",[2]; [13],100
same,"Plant response rating (scale of 0 to 100), Buckwheat, Wild",[2]; Preemergence,0
same,"Plant response rating, Buckwheat, Wild",[2]; [14],90
same,"Plant response rating, Buckwheat, Wild",[2]; [15],25
same,"Plant response rating, Buckwheat, Wild",[2]; [16],100
same,"Plant response rating, Buckwheat, Wild",[2]; [17],100
same,"Mustard, Wild plant response rating",[3]; [11],20
same,"Plant response rating, Mustard, Wild",[3]; [12],40
same,"Plant response rating, Mustard, Wild",[3]; [13],50
same,"Plant response rating (scale of 0 to 100), Mustard, Wild",[3]; Preemergence,0
same,"Plant response rating, Mustard, Wild",[3]; [14],15
same,"Plant response rating, Mustard, Wild",[3]; [15],5
same,"Plant response rating, Mustard, Wild",[3]; [16],10
same,"Plant response rating, Mustard, Wild",[3]; [17],20
same,"Plant response rating, Kochia",[4]; [18],80
same,"Plant response rating, Kochia",[4]; [19],70
same,"Plant response rating, Kochia",[4]; [20],90
same,"Plant response rating, Kochia",[4]; [21],100
same,"Plant response rating, Kochia",[4]; [22],98
same,"Plant response rating, Kochia",[4]; [23],70
same,"Plant response rating, Kochia",[4]; [24],50
same,"Plant response rating, Kochia",[4]; [25],100
same,"Plant response rating, Ryegrass, Italian",[5]; [18],40
same,"Plant response rating, Ryegrass, Italian",[5]; [19],80
same,"Plant response rating, Ryegrass, Italian",[5]; [20],70
same,"Plant response rating, Ryegrass, Italian",[5]; [21],100
same,"Plant response rating, Ryegrass, Italian",[5]; [22],80
same,"Plant response rating, Ryegrass, Italian",[5]; [23],30
same,"Plant response rating, Ryegrass, Italian",[5]; [24],75
same,"Plant response rating, Ryegrass, Italian",[5]; [25],100
same,"Plant response rating, Crabgrass, Large",[6]; [26],0
same,"Plant response rating, Crabgrass, Large",[6]; [27],20
same,"Plant response rating, Crabgrass, Large",[6]; [28],0
same,"Plant response rating, Crabgrass, Large",[6]; [29],30
same,"Plant response rating, Morningglory",[7]; [26],85
same,"Plant response rating, Morningglory",[7]; [27],90
same,"Plant response rating, Morningglory",[7]; [28],60
same,"Plant response rating, Morningglory",[7]; [29],100
same,"Plant response rating, Nightshade",[8]; [26],100
same,"Plant response rating, Nightshade",[8]; [27],100
same,"Plant response rating, Nightshade",[8]; [28],80
same,"Plant response rating, Nightshade",[8]; [29],100
same,"Plant response rating, Surinam Grass",[9]; [26],50
same,"Plant response rating, Surinam Grass",[9]; [27],60
same,"Plant response rating, Surinam Grass",[9]; [28],40
same,"Plant response rating, Surinam Grass",[9]; [29],80
same,"Plant response rating, Crabgrass, Brazil",[10]; [18],20
same,"Plant response rating, Crabgrass, Brazil",[10]; [19],30
same,"Plant response rating, Crabgrass, Brazil",[10]; [20],25
same,"Plant response rating, Crabgrass, Brazil",[10]; [21],80
same,"Plant response rating, Crabgrass, Brazil",[10]; [22],40
same,"Plant response rating, Crabgrass, Brazil",[10]; [23],20
same,"Plant response rating, Crabgrass, Brazil",[10]; [25],100
Cc1ccc2sc(C)c(-c3c(OC(=O)OC(C)C)c(C)nn(C)c3=O)c2c1 [Compound 66],"Ryegrass, Italian plant response rating",[1]; [11],85
same,"Plant response rating, Ryegrass, Italian",[1]; [12],95
same,"Plant response rating, Ryegrass, Italian",[1]; [13],98
same,"Plant response rating (scale of 0 to 100), Ryegrass, Italian",[1]; Preemergence,80
same,"Plant response rating, Ryegrass, Italian",[1]; [14],85
same,"Plant response rating, Ryegrass, Italian",[1]; [15],90
same,"Plant response rating, Ryegrass, Italian",[1]; [16],95
same,"Plant response rating, Ryegrass, Italian",[1]; [17],95
same,"Buckwheat, Wild plant response rating",[2]; [11],95
same,"Plant response rating, Buckwheat, Wild",[2]; [12],100
same,"Plant response rating, Buckwheat, Wild",[2]; [13],100
same,"Plant response rating (scale of 0 to 100), Buckwheat, Wild",[2]; Preemergence,0
same,"Plant response rating, Buckwheat, Wild",[2]; [14],0
same,"Plant response rating, Buckwheat, Wild",[2]; [15],0
same,"Plant response rating, Buckwheat, Wild",[2]; [16],0
same,"Plant response rating, Buckwheat, Wild",[2]; [17],100
same,"Mustard, Wild plant response rating",[3]; [11],10
same,"Plant response rating, Mustard, Wild",[3]; [12],55
same,"Plant response rating, Mustard, Wild",[3]; [13],70
same,"Plant response rating (scale of 0 to 100), Mustard, Wild",[3]; Preemergence,0
same,"Plant response rating, Mustard, Wild",[3]; [14],0
same,"Plant response rating, Mustard, Wild",[3]; [15],0
same,"Plant response rating, Mustard, Wild",[3]; [16],0
same,"Plant response rating, Mustard, Wild",[3]; [17],40
same,"Plant response rating, Kochia",[4]; [18],90
same,"Plant response rating, Kochia",[4]; [19],60
same,"Plant response rating, Kochia",[4]; [20],95
same,"Plant response rating, Kochia",[4]; [21],90
same,"Plant response rating, Kochia",[4]; [30],90
same,"Plant response rating, Kochia",[4]; [23],95
same,"Plant response rating, Kochia",[4]; [31],0
same,"Plant response rating, Kochia",[4]; [24],0
same,"Plant response rating, Ryegrass, Italian",[5]; [18],40
same,"Plant response rating, Ryegrass, Italian",[5]; [19],90
same,"Plant response rating, Ryegrass, Italian",[5]; [20],50
same,"Plant response rating, Ryegrass, Italian",[5]; [21],100
same,"Plant response rating, Ryegrass, Italian",[5]; [30],20
same,"Plant response rating, Ryegrass, Italian",[5]; [23],30
same,"Plant response rating, Ryegrass, Italian",[5]; [31],40
same,"Plant response rating, Ryegrass, Italian",[5]; [24],65
same,"Plant response rating, Crabgrass, Large",[6]; [26],0
same,"Plant response rating, Crabgrass, Large",[6]; [27],15
same,"Plant response rating, Crabgrass, Large",[6]; [32],0
same,"Plant response rating, Crabgrass, Large",[6]; [28],0
same,"Plant response rating, Morningglory",[7]; [26],30
same,"Plant response rating, Morningglory",[7]; [27],40
same,"Plant response rating, Morningglory",[7]; [32],0
same,"Plant response rating, Morningglory",[7]; [28],0
same,"Plant response rating, Nightshade",[8]; [26],15
same,"Plant response rating, Nightshade",[8]; [27],100
same,"Plant response rating, Nightshade",[8]; [32],0
same,"Plant response rating, Nightshade",[8]; [28],0
same,"Plant response rating, Surinam Grass",[9]; [26],5
same,"Plant response rating, Surinam Grass",[9]; [27],50
same,"Plant response rating, Surinam Grass",[9]; [32],5
same,"Plant response rating, Surinam Grass",[9]; [28],20
same,"Plant response rating, Crabgrass, Brazil",[10]; [18],30
same,"Plant response rating, Crabgrass, Brazil",[10]; [19],25
same,"Plant response rating, Crabgrass, Brazil",[10]; [20],40
same,"Plant response rating, Crabgrass, Brazil",[10]; [21],65
same,"Plant response rating, Crabgrass, Brazil",[10]; [30],10
same,"Plant response rating, Crabgrass, Brazil",[10]; [23],20
same,"Plant response rating, Crabgrass, Brazil",[10]; [31],0
same,"Plant response rating, Crabgrass, Brazil",[10]; [24],25
